In ChEMBL document CHEMBL3865791, “Discovery and development of natural product oridonin-inspired anticancer agents” (Eur J Med Chem, 2016):
Counter-ions that a name gives are not always drawn.

What was measured:
Assay type in all cases: functional, cell-based
[1] = Antiproliferative activity against human ER-positive MCF7 cells measured after 48 hrs by MTT assay; conditions: MCF7, 48 h
[2] = Antiproliferative activity against human MDA-MB-231 cells measured after 48 hrs by MTT assay; conditions: MDA-MB-231, 48 h
[3] = Antiproliferative activity against human ER-triple negative MDA-MB-468 cells measured after 48 hrs by MTT assay; conditions: MDA-MB-468, 48 h
[4] = Antiproliferative activity against human MCF7/ADR cells measured after 48 hrs by MTT assay; conditions: NCI/ADR-RES
[5] = Antiproliferative activity against human K562 cells after 72 hrs by MTT assay; conditions: K562, 72 h
[6] = Antiproliferative activity against human […] cells after 72 hrs by MTT assay
[7] = Antiproliferative activity against human MGC803 cells after 72 hrs by MTT assay; conditions: MGC-803, 72 h
[8] = Antiproliferative activity against human CaEs17 cells after 72 hrs by MTT assay; conditions: CaEs17, 72 h

SMILES | EC50 [1] [µM] | EC50 [2] [µM] | EC50 [3] [µM] | EC50 [4] [µM] | EC50 [5] [µM] | EC50 [6] [µM] | EC50 [7] [µM] | EC50 [8] [µM]
C=CCO[C@@H]1CCC2=C(O1)[C@@]13CO[C@@]4(OC(C)(C)O[C@@H]5[C@H]6CC[C@@H]1[C@]54C(=O)C6=C)[C@@H](O)[C@@H]3C(C)(C)C2 | 2.1 | 3.3 | 4.4 | 3.2 |  |  |  | 
C=C1C(=O)[C@@]23[C@@H]4OC(C)(C)O[C@@]25OC[C@]2(C6=C(CC[C@H](OCC)O6)CC(C)(C)[C@H]2[C@@H]5O)[C@@H]3CC[C@@H]14 | 3.5 | 6.1 | 5.4 | 4.7 |  |  |  | 
C=C1C(=O)[C@@]23C(=O)O[C@H]4CCC(C)(C)[C@H]5[C@H](O)OC[C@@]45[C@@H]2CC[C@@H]1[C@H]3OC(=O)c1ccccc1Cl |  |  |  |  | 0.22 | 0.85 | 0.8 | 0.6
C=C1C(=O)[C@@]23[C@@H]4OC(C)(C)O[C@@]25OC[C@]2(C6=C(CC[C@@H](OCCCl)O6)CC(C)(C)[C@H]2[C@@H]5O)[C@@H]3CC[C@@H]14 | 6.8 | 7.2 | 7.3 | 8.7 |  |  |  | 
C=C1C(=O)[C@@]23[C@@H]4OC(C)(C)O[C@@]25OC[C@]2(C6=C(CC[C@@H](OCC)O6)CC(C)(C)[C@H]2[C@@H]5O)[C@@H]3CC[C@@H]14 | 0.44 | 0.54 | 0.52 | 1.6 |  |  |  | 
C=C1C(=O)[C@@]23[C@@H]4OC(C)(C)O[C@@]25OC[C@]2(C6=C(CC[C@H](OCC(C)C)O6)CC(C)(C)[C@H]2[C@@H]5O)[C@@H]3CC[C@@H]14 | 2.2 | 1.8 | 2.6 | 4.4 |  |  |  | 
C=C1C(=O)[C@@]23C(=O)O[C@H]4CCC(C)(C)[C@H]5C(=O)OC[C@@]45[C@@H]2CC[C@@H]1[C@H]3OC(=O)c1ccc(Cl)cc1 |  |  |  |  | 0.14 | 0.89 | 0.34 | 0.34
C=C1C(=O)[C@@]23[C@@H]4OC(C)(C)O[C@@]25OC[C@]2(C6=C(CC[C@H](OCCCC)O6)CC(C)(C)[C@H]2[C@@H]5O)[C@@H]3CC[C@@H]14 | 2.4 | 2.2 | 3 | 3.8 |  |  |  | 
C=CCO[C@H]1CCC2=C(O1)[C@@]13CO[C@@]4(OC(C)(C)O[C@@H]5[C@H]6CC[C@@H]1[C@]54C(=O)C6=C)[C@@H](O)[C@@H]3C(C)(C)C2 | 4.3 | 7.1 | 4.9 | 4.3 |  |  |  | 
C=C1C(=O)[C@@]23[C@@H]4OC(C)(C)O[C@@]25OC[C@]2(C6=C(CC[C@H](OCCCl)O6)CC(C)(C)[C@H]2[C@@H]5O)[C@@H]3CC[C@@H]14 | 2.3 | 3.3 | 3 | 3.1 |  |  |  | 
C=C1C(=O)[C@@]23[C@@H]4OC(C)(C)O[C@@]25OC[C@]2(C6=C(CC[C@@H](OCCCC)O6)CC(C)(C)[C@H]2[C@@H]5O)[C@@H]3CC[C@@H]14 | 2.4 | 3.7 | 5.8 | 6.8 |  |  |  | 
COc1cccc2c1C(=O)c1c(O)c3c(c(O)c1C2=O)C[C@@](O)(C(=O)CO)C[C@@H]3O[C@H]1C[C@H](N)[C@H](O)[C@H](C)O1 [DOXORUBICIN HYDROCHLORIDE] | 0.7 | 2.3 | 0.7 | > 10 |  |  |  | 
C=C1C(=O)[C@@]23[C@@H]4OC(C)(C)O[C@@]25OC[C@]2(C6=C(CC[C@@H](OCC(C)C)O6)CC(C)(C)[C@H]2[C@@H]5O)[C@@H]3CC[C@@H]14 | 5.8 | 8.2 | 7 | 10.3 |  |  |  | 
C=C1C(=O)[C@]23[C@H](OC(=O)c4ccccc4C(=O)OCCCOc4no[n+]([O-])c4S(=O)(=O)c4ccccc4)[C@H]1CC[C@H]2[C@@]12CO[C@@]3(O)[C@@H](O)[C@@H]1C(C)(C)CC[C@@H]2O |  |  |  |  | 1.82 | 0.86 |  | 
